These results are taken from patent publication US20100203650A1, “BIOMOLECULE BINDING LIGANDS” (CAMBRIDGE ENTERPRISE LIMITED, priority 2007, published 2010).

Entries after “also recorded” stand apart in the source; their conditions may differ.

The target of this assay is T1, Factor VIII (Homo sapiens, UniProt P00451).
T1 construct: large-scale purification of a full-length recombinant Factor VIII
Nature of the assay: Factor VIII microplate assay. It counts as binding. How it is done:
On the basis of the results obtained from the initial collection, additional ligands were prepared and screened in relation to Factor VIII binding and elution behaviour. These studies have been performed either using a simple microtitre plate assay (resin volume 40 μL/well) to determine approximate Factor VIII binding affinity followed by more detailed studies using gravity-flow packed resin columns (0.5 mL resin volume). These packed column studies are more accurate and allow simple experiments to be conducted to determine absolute resin affinity by gradual saturation of the column (200 μL, […]) and following the protein concentration in the eluate after serial addition of each factor VIII aliquot applied to the column. In this way, the binding can be established and elution behaviour of each ligand in parallel.

T1 sequence (P00451 20-2351): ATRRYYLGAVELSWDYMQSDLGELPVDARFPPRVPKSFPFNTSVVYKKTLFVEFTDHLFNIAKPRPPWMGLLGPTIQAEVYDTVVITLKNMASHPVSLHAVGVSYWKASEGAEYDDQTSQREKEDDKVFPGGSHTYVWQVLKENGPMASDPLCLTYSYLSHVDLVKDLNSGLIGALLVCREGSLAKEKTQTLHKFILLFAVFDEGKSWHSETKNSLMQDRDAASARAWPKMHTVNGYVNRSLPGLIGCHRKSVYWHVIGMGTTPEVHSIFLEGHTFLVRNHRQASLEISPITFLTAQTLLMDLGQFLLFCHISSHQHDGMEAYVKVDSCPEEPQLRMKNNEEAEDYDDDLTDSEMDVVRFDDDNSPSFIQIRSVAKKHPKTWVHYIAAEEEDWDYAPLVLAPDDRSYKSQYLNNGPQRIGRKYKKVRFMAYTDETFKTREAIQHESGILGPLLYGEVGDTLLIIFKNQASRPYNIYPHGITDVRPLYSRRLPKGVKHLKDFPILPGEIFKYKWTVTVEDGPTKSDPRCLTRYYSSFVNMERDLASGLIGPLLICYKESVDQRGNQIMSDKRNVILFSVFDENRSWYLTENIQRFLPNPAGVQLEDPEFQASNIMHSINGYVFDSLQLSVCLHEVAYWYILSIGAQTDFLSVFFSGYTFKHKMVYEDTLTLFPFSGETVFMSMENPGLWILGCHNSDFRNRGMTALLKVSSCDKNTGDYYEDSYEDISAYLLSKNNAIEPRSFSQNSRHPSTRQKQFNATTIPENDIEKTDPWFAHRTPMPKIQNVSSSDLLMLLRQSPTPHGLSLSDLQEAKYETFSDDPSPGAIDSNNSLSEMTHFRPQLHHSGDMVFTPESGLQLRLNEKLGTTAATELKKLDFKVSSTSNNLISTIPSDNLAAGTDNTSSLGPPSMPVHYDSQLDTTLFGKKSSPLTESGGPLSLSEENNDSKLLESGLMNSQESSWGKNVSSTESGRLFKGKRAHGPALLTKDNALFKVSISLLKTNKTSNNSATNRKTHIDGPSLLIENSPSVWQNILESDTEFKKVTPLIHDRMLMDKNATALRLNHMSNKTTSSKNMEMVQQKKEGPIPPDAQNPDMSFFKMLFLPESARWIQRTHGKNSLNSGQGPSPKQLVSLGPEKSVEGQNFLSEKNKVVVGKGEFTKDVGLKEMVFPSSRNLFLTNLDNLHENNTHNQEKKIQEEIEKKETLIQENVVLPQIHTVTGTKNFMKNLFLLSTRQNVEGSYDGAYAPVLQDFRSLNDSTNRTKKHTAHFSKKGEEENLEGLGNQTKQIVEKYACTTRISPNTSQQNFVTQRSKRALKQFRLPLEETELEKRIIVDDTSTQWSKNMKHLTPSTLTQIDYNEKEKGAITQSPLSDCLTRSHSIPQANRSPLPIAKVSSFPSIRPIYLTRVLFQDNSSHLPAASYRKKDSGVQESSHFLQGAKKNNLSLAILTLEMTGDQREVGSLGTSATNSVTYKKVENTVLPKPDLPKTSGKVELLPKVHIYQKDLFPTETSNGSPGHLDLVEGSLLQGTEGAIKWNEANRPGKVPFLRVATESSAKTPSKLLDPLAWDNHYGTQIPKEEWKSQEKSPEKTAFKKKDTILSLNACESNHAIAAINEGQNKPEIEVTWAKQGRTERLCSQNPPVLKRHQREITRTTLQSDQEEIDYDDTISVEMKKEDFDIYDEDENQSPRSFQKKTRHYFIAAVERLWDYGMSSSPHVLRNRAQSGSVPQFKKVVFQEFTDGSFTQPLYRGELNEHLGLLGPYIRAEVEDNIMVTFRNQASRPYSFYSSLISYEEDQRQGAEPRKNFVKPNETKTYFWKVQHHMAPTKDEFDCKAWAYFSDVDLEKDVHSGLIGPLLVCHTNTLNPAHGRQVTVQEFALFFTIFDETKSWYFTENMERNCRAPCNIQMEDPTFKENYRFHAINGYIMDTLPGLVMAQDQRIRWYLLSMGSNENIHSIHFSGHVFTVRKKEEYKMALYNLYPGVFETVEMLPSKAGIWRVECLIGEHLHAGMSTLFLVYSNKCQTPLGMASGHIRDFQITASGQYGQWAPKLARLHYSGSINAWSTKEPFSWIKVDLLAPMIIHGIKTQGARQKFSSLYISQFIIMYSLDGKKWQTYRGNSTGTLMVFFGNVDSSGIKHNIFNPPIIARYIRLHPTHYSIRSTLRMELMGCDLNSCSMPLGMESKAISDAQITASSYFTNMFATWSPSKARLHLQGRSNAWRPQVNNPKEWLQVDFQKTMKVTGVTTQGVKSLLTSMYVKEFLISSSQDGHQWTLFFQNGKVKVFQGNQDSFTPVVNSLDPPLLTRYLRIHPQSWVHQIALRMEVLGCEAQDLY

On to `COC(=O)c1cccc(Nc2nc(C)nc(Nc3cccc4c(S(=O)(=O)OC)cccc34)n2)c1` [34/43], for which the “Factor VIII binding (in words)” value is “strongest Factor VIII binding and elution characteristics; also recorded: one of the highest Factor VIII binding potential”. The “Factor VIII Bound” value (initial collection U1-U4 and comparison ligand) amounted to 106.3 µg/mL.
